Values of other authors as cited in patent US20240269238A1, “Therapeutic Regimens and Methods for Reducing Body Weight in a Subject with Fatty Liver Disease using a GLP-1R and GCGR Agonist” (Spitfire Pharma LLC, priority 2022, published 2024).

Tests used:
[1] = over 26 weeks of administration; cited from earlier work
liver fat content = conditions: 6 weeks; cited from earlier work

CCCCCCCCCCCCCCCC(=O)N[C@@H](CCC(=O)NCCCC[C@H](NC(=O)[C@H](CC(=O)O)NC(=O)[C@H](CO)NC(=O)[C@@H](NC(=O)[C@H](Cc1ccccc1)NC(=O)[C@@H](NC(=O)CNC(=O)[C@H](CCC(N)=O)NC(=O)[C@H](CO)NC(=O)[C@@H](N)Cc1c[nH]cn1)[C@@H](C)O)[C@@H](C)O)C(=O)N[C@@H](CO)C(=O)N[C@@H](CCC(=O)O)C(=O)N[C@@H](Cc1ccc(O)cc1)C(=O)N[C@@H](CC(C)C)C(=O)N[C@@H](CC(=O)O)C(=O)N[C@@H](CO)C(=O)N[C@@H](CCC(=O)O)C(=O)N[C@@H](CCCNC(=N)N)C(=O)N[C@@H](C)C(=O)N[C@@H](CCCNC(=N)N)C(=O)N[C@@H](CC(=O)O)C(=O)N[C@@H](Cc1ccccc1)C(=O)N[C@H](C(=O)N[C@@H](C)C(=O)N[C@@H](Cc1c[nH]c2ccccc12)C(=O)N[C@@H](CC(C)C)C(=O)N[C@@H](CCC(=O)O)C(=O)N[C@@H](C)C(=O)NCC(=O)NCC(=O)O)C(C)C)C(=O)O [cotadutide]
weight loss [1]: 5.4% | reduction in liver fat content (liver fat content): 39%
